Experimental data published in patent US9433607B2, “Composition for prevention or treatment of cancer comprising N-methylenenaphtho[2,1-b]furan-2-carbohydrazide derivatives as an active ingredient” (KOREA RESEARCH INSTITUTE OF BIOSCIENCE AND BIOTECHNOLOGY, priority 2012, dated 2016).

Key:
K562 = test: Cytotoxicity MTT assay, K562; format: cell-based; details: Homo sapiens, 96 h, 4 days
Description: (§1) Particularly, K562, MCF7 (Bio-Evaluation Center, Korea Research Institute of Bioscience and Biotechnology, Korea), and the multi-drug resistant cell lines thereof, K562/ADR and MCF7/ADR (Bio-Evaluation Center, Korea Research Institute of Bioscience and Biotechnology, Korea) were cultured in microtiter plate (1-3×10^3 cells/well). Then, the cells were treated with ethyl(2-methyl-3{(E)-[(naphtho[2,1-b]furan-2-ylcarbonyl)hydrazono]methyl}-1H-indole-1-yl)acetate, doxorubicin, or taxol, followed by culture for 4 days. Cytotoxicity was investigated by MTT assay by the same manner as described in Example <1-2>. IC50 was calculated by long-dose response curve. The data presents the mean value obtained from the assay performed in triplicate (Table 3).

MCF7/ADR = test: Cytotoxicity MTT assay, multi-drug resistant MCF7/ADR; format: cell-based; details: for IC50: Homo sapiens, NCI/ADR-RES, 96 h, MCF7/ADR, MTT, 4 days; for resistance factor (number in the bracket): ratio of IC50 of MCF7/ADR to IC50 of parent MCF7
Description: as §1
(§2) The resistance factor of the multi-drug resistant cell line indicates the ratio of IC50 of the multi-drug resistant cell line to IC50 of the parent cell line showing no resistance, which was presented as a number in the bracket.

K562/ADR = test: Cytotoxicity MTT assay, multi-drug resistant K562/ADR; format: cell-based; details: for IC50: Homo sapiens, 96 h, K562/ADR, MTT, 4 days; for resistance factor (number in the bracket): ratio of IC50 of K562/ADR to IC50 of parent K562
Description: as §1, §2

MCF7 = test: Cytotoxicity MTT assay, MCF7; format: cell-based; details: Homo sapiens, 96 h, 4 days
Description: as §1

HeLa cell line = test: Anti-proliferative activity in HeLa cells (MTT assay); format: cell-based; details: HeLa cell line; for IC50: Homo sapiens
Description: Particularly, HeLa cell line (ATCC, USA) was treated with the compounds of Table 1 respectively, and then IC50 (the half maximal inhibitory concentration) was investigated (Table 1).
HeLa cells were treated with 100 nM, 250 nM, 500 nM and 1 μM of ethyl(2-methyl-3{(E)-[(naphtho[2,1-b]furan-2-ylcarbonyl)hydrazono]methyl}-1H-indole-1-yl)acetate or DMSO for 4 days. Then, the cell growth was confirmed by MTT assay. All the obtained numbers were calculated by normalizing the value of Day 0. The data presents the mean value obtained from the assay performed in triplicate.
Particularly, HeLa cells were distributed in a 96-well plate at the density of 2×10^3 cells/well. The cells were treated with DMSO or the compound of the present invention, to which MTT reagent was added at the concentration of 10 μl/well. 2 hours later, OD450 was measured, which became the value of Day 0. 4 days later, MTT reagent was added thereto again. 2 hours later, OD450 was measured. The data presents the mean value obtained from the assay performed in triplicate.

HeLa cells = test: Immunofluorescence of intracellular microtubules and chromosomes; format: cell-based; details: 17 hours, Taxol 100 μM, nocodazole 200 ng/ml, compound 5 μM
Description: To investigate the effect of ethyl(2-methyl-3{(E)-[(naphtho[2,1-b]furan-2-ylcarbonyl)hydrazono]methyl}-1H-indole-1-yl)acetate on intracellular microtubules, HeLa cells were treated with DMSO, Taxol (100 μM), nocodazole (200 ng/ml), or ethyl(2-methyl-3{(E)-[(naphtho[2,1-b]furan-2-ylcarbonyl)hydrazono]methyl}-1H-indole-1-yl)acetate (5 μM) for 17 hours. After fixing the cells, the cells were immuno-stained with Alexa Fluor 488-conjugated anti-tubulin antibody and Hoechst 33342 to confirm α-tubulin and chromosomes.

[1] = test system: FVB/N mouse induced with skin tumor; test: DMBA/TPA induced skin tumor model; format: in vivo
Description: In this invention, the male FVB/N mice (6-7 weeks, Jackson Laboratory, USA) were raised under the condition of 12 hr bright lighting/12 hr dim lighting at the temperature of 24±2° C. with the humidity of 50±10% with water and feed provided freely. The care and process of the test animal was reviewed and approved by Institutional Animal Care and Use Committee (IACUC), Korea Research Institute of Bioscience and Biotechnology (KRIBB). DMBA (7,12-dimethylbenz[α]anthracene), TPA (12-O-tetradecanoylphorbol-13-acetate) and cholchicine were purchased from Sigma-Aldrich, and the synthesized ethyl(2-methyl-3{(E)-[(naphtho[2,1-b]furan-2-ylcarbonyl)hydrazono]methyl}-1H-indole-1-yl)acetate was provided from Dr. Thimmegowda.
Particularly, the dorsal skin of the said FVB/N mouse was shaved two days before the experiment. 100 μg of DMBA was added to 0.2 ml of acetone, which was treated to the mouse by single-local administration for 1 week to induce tumor. 5 fig of TPA was added to 0.2 ml of acetone, which was treated to the above mouse induced with tumor […] for 15 weeks to grow the tumor. 500 nM of ethyl(2-methyl-3{(E)-[(naphtho[2,1-b]furan-2-ylcarbonyl)hydrazono]methyl}-1H-indole-1-yl)acetate or cholchicine was dissolved in 0.2 ml of acetone, which was treated to the above mouse locally for 30 minutes each time for 15 weeks. Each group was composed of at least 10 mice and total 4 groups were prepared:
Group 1: DMBA and acetone treated group (negative control)
Group 2: DMBA and TPA treated group (positive control)
Group 3: DMBA/TPA and cholchicine treated group (experimental group 1)
Group 4: DMBA/TPA and ethyl(2-methyl-3{(E)-[(naphtho[2,1-b]furan-2-ylcarbonyl)hydrazono]methyl}-1H-indole-1-yl)acetate treated group (experimental group 2).
In addition, skin tumor such as papilloma was checked every week during the whole period of experiment. The tumor in the size of at least 2 mm was judged as positive. 15 weeks later, the mice were sacrificed with CO2. The skin tumor was extracted for histopathological/biochemical analysis.
The average number and the volume of tumor in each group were calculated.
Each mouse group was treated with different materials by the same manner as described in Example <8-2>, followed by observation for 15 weeks, and then the number of mice having skin tumor was counted. Tumor development rate was presented as %.
The mouse induced with skin tumor by the same manner as described in Example <8-2> was treated with DMBA, and then the induced tumors were observed and weighed for 15 weeks to produce the average weight of tumor.

COc1cccc2c1C(=O)c1c(O)c3c(c(O)c1C2=O)C[C@@](O)(C(=O)CO)C[C@@H]3O[C@H]1C[C@H](N)[C@H](O)[C@H](C)O1 [Doxorubicin]
IC50 (K562): 3.3 µM | IC50 (MCF7/ADR): 5230 µM | resistance factor (number in the bracket) (MCF7/ADR): 98 | IC50 (K562/ADR): 3800 µM | resistance factor (number in the bracket) (K562/ADR): 1153 | IC50 (MCF7): 53 µM

Cc1ccc(-c2ccc(/C=N/NC(=O)c3cc4c(ccc5ccccc54)o3)o2)cc1[N+](=O)[O-] [G, (E)-N′-((5-(4-methyl-3-nitrophenyl)furan-2-yl)methylene)naphtho[2,1-b]furan-2-carbohydrazide]
IC50 (HeLa cell line): 3.11 µM

O=C(N/N=C/c1ccc(-c2cccc(Cl)c2Cl)o1)c1cc2c(ccc3ccccc32)o1 [E]
IC50 (HeLa cell line): 2.61 µM

O=C(N/N=C/c1ccc(OCc2ccccc2)cc1)c1cc2c(ccc3ccccc32)o1 [I, (E)-N′-(4-(benzyloxy)benzylidene)naphtho[2,1-b]furan-2-carbohydrazide]
IC50 (HeLa cell line): 3.67 µM

C=CCn1c(C)c(/C=N/NC(=O)c2cc3c(ccc4ccccc43)o2)c2ccccc21 [B, (E)-N′-((1-allyl-2-methyl-1H-indol-3-yl)methylene)naphtho[2,1-b]furan-2-carbohydrazide]
IC50 (HeLa cell line): 1.96 µM

COC(=O)Nc1nc2ccc(C(=O)c3cccs3)cc2[nH]1 [nocodazole, reference compound]
effect on microtubules and chromosomes (immunostaining) (HeLa cells): chromosomes were not fully condensed and microtubules were destroyed

O=C(N/N=C/c1ccc(-c2ccc(Br)cc2)o1)c1cc2c(ccc3ccccc32)o1 [D]
IC50 (HeLa cell line): 2.24 µM

O=C(N/N=C/c1ccc([N+](=O)[O-])o1)c1cc2c(ccc3ccccc32)o1 [H, (E)-N′-((5-nitrofuran-2-yl)methylene)naphtho[2,1-b]furan-2-carbohydrazide]
IC50 (HeLa cell line): 5.4 µM

CC(=O)O[C@H]1C(=O)[C@@]2(C)[C@H]([C@H](OC(=O)c3ccccc3)[C@]3(O)C[C@H](OC(=O)[C@H](O)[C@@H](NC(=O)c4ccccc4)c4ccccc4)C(C)=C1C3(C)C)[C@]1(OC(C)=O)CO[C@@H]1C[C@@H]2O [Taxol]
IC50 (K562): 2 µM | IC50 (MCF7/ADR): 1620 µM | resistance factor (number in the bracket) (MCF7/ADR): 377 | effect on microtubules and chromosomes (immunostaining) (HeLa cells): strengthened the polymerization of tubulin so that multi-polar spindle fibers with condensed chromosomes were produced | IC50 (K562/ADR): 1820 µM | resistance factor (number in the bracket) (K562/ADR): 911 | IC50 (MCF7): 4.3 µM

O=C(N/N=C/c1ccc(-c2ccc([N+](=O)[O-])cc2)o1)c1cc2c(ccc3ccccc32)o1 [Compound F, (E)-N′-((5-(4-nitrophenyl)furan-2-yl)methylene)naphtho[2,1-b]furan-2-carbohydrazide]
IC50 (HeLa cell line): 2.88 µM

Cc1c(/C=N/NC(=O)c2cc3c(ccc4ccccc43)o2)c2ccccc2n1CC#N [C, (E)-N′-((1-(cyanomethyl)-2-methyl-1H-indol-3-yl)methylene)naphtho[2,1-b]furan-2-carbohydrazide]
IC50 (HeLa cell line): 2.61 µM

COc1cc2c(c(OC)c1OC)-c1ccc(OC)c(=O)cc1[C@@H](NC(C)=O)CC2 [cholchicine, reference compound]
number of skin tumor ([1]; 500 nM in 0.2 ml acetone, local, 15 weeks): significantly reduced | weight of tumor compared with positive control ([1]; 15 weeks): significantly lighter | average volume of skin tumor reduced compared with positive control ([1]; 15 weeks, 500 nM local): 31.5% | decrease of average number of skin tumor compared with positive control ([1]; 15 weeks, 500 nM local): 2.86 times | week to which tumor formation was postponed ([1]; tumor of at least 2 mm, positive control from 8th week): 9 week

COc1cccc(/C=N/NC(=O)c2cc3c(ccc4ccccc43)o2)c1O [J, (E)-N′-(2-hydroxy-3-methoxybenzylidene)naphtho[2,1-b]furan-2-carbohydrazide]
IC50 (HeLa cell line): 3.97 µM

Cc1c(/C=N/NC(=O)c2cc3c(ccc4ccccc43)o2)c2ccccc2n1C [A]
decrease of anti-proliferative activity compared with STK899704 (HeLa cell line): two times decreased | IC50 (HeLa cell line): 0.44 µM
